The text below walks through data of patent US9586951B2 (FUJIFILM Corporation, priority 2013, dated 2017).

Where a name gives a salt, the structure may show the parent alone. A value given as a limit tells only on which side of the number the result lay.

T1 sequence (Q13315 whole entry): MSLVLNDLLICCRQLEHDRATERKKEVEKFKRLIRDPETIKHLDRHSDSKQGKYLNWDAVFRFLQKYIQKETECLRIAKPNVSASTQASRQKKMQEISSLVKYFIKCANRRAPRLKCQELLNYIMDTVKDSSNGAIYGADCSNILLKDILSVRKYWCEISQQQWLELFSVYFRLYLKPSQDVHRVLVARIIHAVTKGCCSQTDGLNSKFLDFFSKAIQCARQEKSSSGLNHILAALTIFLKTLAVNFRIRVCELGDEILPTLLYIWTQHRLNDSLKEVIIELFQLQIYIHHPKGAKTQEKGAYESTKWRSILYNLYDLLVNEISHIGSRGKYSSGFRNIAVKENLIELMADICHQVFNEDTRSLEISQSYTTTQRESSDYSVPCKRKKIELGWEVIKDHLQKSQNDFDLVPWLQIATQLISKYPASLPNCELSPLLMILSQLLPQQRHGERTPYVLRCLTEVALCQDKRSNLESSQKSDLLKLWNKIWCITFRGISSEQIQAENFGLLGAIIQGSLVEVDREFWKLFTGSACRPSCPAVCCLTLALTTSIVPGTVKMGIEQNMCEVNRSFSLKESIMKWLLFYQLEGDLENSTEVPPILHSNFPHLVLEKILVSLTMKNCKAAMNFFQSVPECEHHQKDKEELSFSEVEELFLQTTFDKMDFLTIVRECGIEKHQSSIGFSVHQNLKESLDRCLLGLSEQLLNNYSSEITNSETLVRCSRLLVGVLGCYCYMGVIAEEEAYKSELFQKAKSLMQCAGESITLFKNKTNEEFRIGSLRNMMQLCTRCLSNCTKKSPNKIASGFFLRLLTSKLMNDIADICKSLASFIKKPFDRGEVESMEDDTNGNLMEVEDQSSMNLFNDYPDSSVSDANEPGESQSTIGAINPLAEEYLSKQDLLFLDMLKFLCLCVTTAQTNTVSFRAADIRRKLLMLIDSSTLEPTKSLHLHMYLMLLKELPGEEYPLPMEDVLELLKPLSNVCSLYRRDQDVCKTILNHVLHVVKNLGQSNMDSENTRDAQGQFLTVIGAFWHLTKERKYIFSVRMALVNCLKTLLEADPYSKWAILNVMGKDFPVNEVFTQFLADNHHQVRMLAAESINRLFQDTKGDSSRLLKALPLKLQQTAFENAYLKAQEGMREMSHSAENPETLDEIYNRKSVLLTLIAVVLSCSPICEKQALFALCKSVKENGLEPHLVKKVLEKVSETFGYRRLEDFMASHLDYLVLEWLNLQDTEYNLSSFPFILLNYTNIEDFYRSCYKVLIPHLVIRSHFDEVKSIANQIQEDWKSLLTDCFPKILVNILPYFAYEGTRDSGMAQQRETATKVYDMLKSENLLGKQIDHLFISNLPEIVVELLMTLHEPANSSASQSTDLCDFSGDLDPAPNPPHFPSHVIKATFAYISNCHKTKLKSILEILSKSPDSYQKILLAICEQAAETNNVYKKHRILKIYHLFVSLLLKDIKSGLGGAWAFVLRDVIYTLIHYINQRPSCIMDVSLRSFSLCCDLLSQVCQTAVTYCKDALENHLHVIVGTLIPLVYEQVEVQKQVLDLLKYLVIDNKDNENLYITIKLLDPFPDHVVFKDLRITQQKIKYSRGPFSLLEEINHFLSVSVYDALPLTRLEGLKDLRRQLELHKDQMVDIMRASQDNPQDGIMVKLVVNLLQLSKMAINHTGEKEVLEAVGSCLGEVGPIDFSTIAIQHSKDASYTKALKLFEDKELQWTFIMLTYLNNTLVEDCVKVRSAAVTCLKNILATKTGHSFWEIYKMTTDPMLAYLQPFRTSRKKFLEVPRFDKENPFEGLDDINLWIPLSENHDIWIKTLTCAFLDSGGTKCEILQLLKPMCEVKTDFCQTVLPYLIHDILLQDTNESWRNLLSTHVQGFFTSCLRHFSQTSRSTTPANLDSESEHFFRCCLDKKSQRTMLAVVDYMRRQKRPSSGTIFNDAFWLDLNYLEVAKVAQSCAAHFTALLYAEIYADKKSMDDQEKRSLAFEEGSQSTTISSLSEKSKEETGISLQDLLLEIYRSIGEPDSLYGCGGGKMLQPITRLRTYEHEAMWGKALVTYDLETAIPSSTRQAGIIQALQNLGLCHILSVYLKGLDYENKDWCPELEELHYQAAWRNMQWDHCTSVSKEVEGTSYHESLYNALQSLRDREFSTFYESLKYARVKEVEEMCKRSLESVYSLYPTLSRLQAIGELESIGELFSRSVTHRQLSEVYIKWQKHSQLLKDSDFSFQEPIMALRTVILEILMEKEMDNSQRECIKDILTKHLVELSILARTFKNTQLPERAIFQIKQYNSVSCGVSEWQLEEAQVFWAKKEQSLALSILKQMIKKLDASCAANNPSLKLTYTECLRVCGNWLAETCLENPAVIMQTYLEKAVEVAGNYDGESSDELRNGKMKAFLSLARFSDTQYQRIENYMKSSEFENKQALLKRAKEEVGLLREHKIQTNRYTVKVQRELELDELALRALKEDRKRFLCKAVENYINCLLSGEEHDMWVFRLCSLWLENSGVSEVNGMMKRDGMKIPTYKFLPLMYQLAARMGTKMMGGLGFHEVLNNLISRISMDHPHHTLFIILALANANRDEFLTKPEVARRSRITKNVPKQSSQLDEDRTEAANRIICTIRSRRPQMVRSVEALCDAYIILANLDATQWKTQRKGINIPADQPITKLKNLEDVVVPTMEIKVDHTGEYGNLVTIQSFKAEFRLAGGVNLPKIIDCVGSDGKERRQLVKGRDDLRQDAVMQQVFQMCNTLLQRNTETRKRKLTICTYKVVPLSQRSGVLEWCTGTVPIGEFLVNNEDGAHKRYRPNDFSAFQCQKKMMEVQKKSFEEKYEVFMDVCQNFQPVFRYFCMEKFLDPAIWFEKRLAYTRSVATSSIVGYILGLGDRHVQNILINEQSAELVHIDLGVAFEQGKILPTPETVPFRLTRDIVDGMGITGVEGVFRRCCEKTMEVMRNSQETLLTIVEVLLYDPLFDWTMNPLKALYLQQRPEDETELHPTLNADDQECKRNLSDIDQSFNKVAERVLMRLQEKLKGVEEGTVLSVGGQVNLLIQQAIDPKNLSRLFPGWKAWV

The assay concerns the target T1, ATM (Homo sapiens, UniProt Q13315).
T1 construct: detecting phosphorylation of Chk2 in a human non-small cell lung cancer cell line NCI-H460 (ATCC company); host or cells: NCI-H460 human non-small cell lung cancer cells
The assay is described as follows: ATM inhibition test (phosphorylation of Chk2 generated by ionizing radiation, AlphaScreen SureFire). In kind it is cell-based. Conditions: phosphorylated Chk2 in NCI-H460 cells, ionizing radiation 8Gy, 1 hour after test compound treatment; read-out: ATM inhibitory activity. Put shortly:
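Phosphorylated Chk2 read by AlphaScreen SureFire in human non-small cell lung cancer NCI-H460 cells, 1 hour after 8Gy ionizing radiation at 37° C. Compound added 1 hour before irradiation. Percent inhibition normalised between irradiated and non-irradiated drug-untreated signals.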
Turning to `CC1CCCCN1CC(CO)Nc1ccc2c(c1)Sc1cccc(-c3cc(N4CCOCC4)cc(=O)[nH]3)c1S2` (single isomer, unassigned) [Example 1-37-7, 6-(7-((1-Hydroxy-3-(2-methylpiperidin-1-yl)propan-2-yl)amino)thianthren-1-yl)-4-morpholino pyridin-2(1H)-one], the IC50 lay within 500 to 2000 nM. For the compound `Cc1ccccc1CCN1CCC(Nc2ccc3c(c2)Cc2cccc(-c4cc(N5CCOCC5)cc(=O)[nH]4)c2O3)CC1` [Example 2-30-4, 6-(7-((1-(2-Methylphenethyl)piperidin-4-yl)amino)-9H-xanthen-4-yl)-4-morpholino pyridin-2 (1H)-one], the IC50 was 100 to 500 nM. The figure for `CC[C@H](N)C(C)Nc1ccc2c(c1)Sc1cccc(-c3cc(N4CCOCC4)cc(=O)[nH]3)c1S2` (stereo partly drawn) [Example 1-20-5, 6-(7-(((3S)-3-Aminopentan-2-yl)amino)thianthren-1-yl)-4-morpholino pyridin-2(1H)-one] is 100 to 500 nM; for `COc1cncc(CNc2ccc3c(c2)Cc2cccc(-c4cc(N5CCOCC5)cc(=O)[nH]4)c2O3)c1` [Example 2-3-8, 6-(7-(((5-Methoxypyridin-3-yl)methyl)amino)-9H-xanthen-4-yl)-4-morpholino pyridin-2(1H)-one] it is 100 to 500 nM; for `COCCN1CCC(Nc2ccc3c(c2)Cc2cccc(-c4cc(N5CCOCC5)cc(=O)[nH]4)c2O3)CC1` [Example 2-29, 6-(7-((1-(2-Methoxyethyl)piperidin-4-yl)amino)-9H-xanthen-4-yl)-4-morpholinopyridin-2(1H)-one] it is 500 to 2000 nM. The figure for `Cc1ccsc1CNc1ccc2c(c1)Sc1cccc(-c3cc(N4CCOCC4)cc(=O)[nH]3)c1S2` [Example 1-12-59, 6-(7-(((3-Methylthiophen-2-yl)methyl)amino)thianthren-1-yl)-4-morpholino pyridin-2 (1H)-one] is 500 to 2000 nM; for `CC(C)N1CCC(Nc2ccc3c(c2)Sc2cccc(-c4cc(N5CCOCC5)cc(=O)[nH]4)c2S3)CC1` [Example 1-12-116, 6-(7-((1-Isopropylpiperidin-4-yl)amino)thianthren-1-yl)-4-morpholino pyridin-2(1H)-one] it is 100 to 500 nM; for `CNc1ncc(CN2CCC(Nc3ccc4c(c3)Cc3cccc(-c5cc(N6CCOCC6)cc(=O)[nH]5)c3O4)CC2)cn1` [Example 2-28-12, 6-(7-((1-((2-(Methylamino)pyrimidin-5-yl)methyl)piperidin-4-yl)amino)-9H-xanthen-4-yl)-4-morpholino pyridin-2 (1H)-one] it is 500 to 2000 nM.

On to `CN1CCN(CCNc2ccc3c(c2)Cc2cccc(-c4cc(N5CCOCC5)cc(=O)[nH]4)c2S3)CC1` [Example 3-4-3, 6-(7-((2-(4-Methylpiperazin-1-yl)ethyl)amino)-9H-thioxanthen-4-yl)-4-morpholino pyridin-2 (1H)-one], for which the IC50 lay within 500 to 2000 nM. Consider `CN[C@@H](Cc1ccccc1)C(=O)Nc1ccc2c(c1)Sc1cccc(-c3cc(N4CCOCC4)cc(=O)[nH]3)c1S2` [Example 1-4, (S)-2-(methylamino)-N-(6-(4-morpholino-6-oxo-1,6-dihydropyridin-2-yl)thianthren-2-yl)-3-phenyl propanamide], for which the IC50 was in the range of 100 to 500 nM. As for `O=c1cc(N2CCOCC2)cc(-c2cccc3c2Oc2ccc(NC4CCN(CCc5ccc(Cl)cc5)CC4)cc2C3)[nH]1` [Example 2-30-6, 6-(7-((1-(4-Chlorophenethyl)piperidin-4-yl)amino)-9H-xanthen-4-yl)-4-morpholino pyridin-2 (1H)-one], the IC50 lay in the range of 500 to 2000 nM. With `O=c1cc(N2CCOCC2)cc(-c2cccc3c2Oc2ccc(NCc4cncs4)cc2C3)[nH]1` [Example 2-14-37, 4-Morpholino-6-(7-((thiazol-5-ylmethyl)amino)-9H-xanthen-4-yl) pyridin-2(1H)-one] the figure was 500 to 2000 nM. The figure for `O=c1cc(N2CCOCC2)cc(-c2cccc3c2Oc2ccc(NC4CCCN(CCc5ccccc5)CC4)cc2C3)[nH]1` (centres unmarked) [Example 2-19-5, 4-Morpholino-6-(7-((1-phenethylazepan-4-yl)amino)-9H-xanthen-4-yl)pyridin-2(1H)-one] is 100 to 500 nM; for `Nc1ccc(CCN2CCC(Nc3ccc4c(c3)Cc3cccc(-c5cc(N6CCOCC6)cc(=O)[nH]5)c3O4)CC2)cc1` [Example 2-31, hydrochloride of 6-(7-((1-(4-aminophenethyl)piperidin-4-yl)amino)-9H-xanthen-4-yl)-4-morpholinopyridin-2(1H)-one] it is 100 to 500 nM; for `Cc1cncc(CNc2ccc3c(c2)Sc2cccc(-c4cc(N5CCOCC5)cc(=O)[nH]4)c2S3)n1` [Example 1-12-60, 6-(7-(((6-Methylpyrazin-2-yl)methyl)amino)thianthren-1-yl)-4-morpholino pyridin-2(1H)-one] it is 100 to 500 nM. With `Cc1ccnc(C(C)Nc2ccc3c(c2)Sc2cccc(-c4cc(N5CCOCC5)cc(=O)[nH]4)c2S3)n1` (single isomer, unassigned) [Example 1-12-144-2, 6-(7-((1-(4-methylpyrimidin-2-yl)ethyl)amino)thianthren-1-yl)-4-morpholinopyridin-2(1H)-one], the IC50 lay within 100 to 500 nM. With `O=c1cc(N2CCOCC2)cc(-c2cc(F)cc3c2Oc2ccc(NCc4cc(C5CC5)ccn4)cc2C3)[nH]1` [Example 2-48-4, 6-(7-(((4-Cyclopropylpyridin-2-yl)methyl)amino)-2-fluoro-9H-xanthen-4-yl)-4-morpholinopyridin-2(1H)-one] the figure was 100 to 500 nM. For the compound `O=c1cc(N2CCOCC2)cc(-c2cccc3c2Oc2ccc(NC4CCN(Cc5cccc(C6CC6)n5)CC4)cc2C3)[nH]1` [Example 2-28-31, 6-(7-((1-((6-Cyclopropylpyridin-2-yl)methyl)piperidin-4-yl)amino)-9H-xanthen-4-yl)-4-morpholino pyridin-2(1H)-one], the IC50 was in the range of 100 to 500 nM. With `CC(Nc1ccc2c(c1)Cc1cccc(-c3cc(N4CCOCC4)cc(=O)[nH]3)c1O2)c1cc(CF)ncn1` (centres unmarked) [Example 2-14-65, 6-(7-((1-(6-(Fluoromethyl)pyrimidin-4-yl)ethyl)amino)-9H-xanthen-4-yl)-4-morpholino pyridin-2(1H)-one] the figure was 100 to 500 nM; with `CN(C)c1ncc(CNc2ccc3c(c2)Sc2cccc(-c4cc(N5CCOCC5)cc(=O)[nH]4)c2O3)cn1` [Example 4-4-5, 6-(8-(((2-(Dimethylamino)pyrimidin-5-yl)methyl)amino)phenoxathiin-4-yl)-4-morpholino pyridin-2 (1H)-one], 100 to 500 nM; with `Cc1csc(CNc2ccc3c(c2)Sc2cccc(-c4cc(N5CCOCC5)cc(=O)[nH]4)c2S3)c1` [Example 1-12-58, 6-(7-(((4-Methylthiophen-2-yl)methyl)amino)thianthren-1-yl)-4-morpholino pyridin-2 (1H)-one], 100 to 500 nM. With `O=c1cc(N2CCOCC2)cc(-c2cccc3c2Sc2ccc(NC4CCCN(C5COC5)C4)cc2S3)[nH]1` (centres unmarked) [Example 1-24-6, 4-Morpholino-6-(7-((1-(oxetan-3-yl)piperidin-3-yl)amino)thianthren-1-yl) pyridin-2(1H)-one] the figure was 100 to 500 nM; with `O=c1cc(N2CCOCC2)cc(-c2cccc3c2Oc2cccc(N4CCOCC4)c2C3)[nH]1` [Example 2-60, 4-Morpholino-6-(8-morpholino-9H-xanthen-4-yl)pyridin-2(1H)-one], 100 to 500 nM.

Regarding `O=c1cc(N2CCOCC2)cc(-c2cccc3c2Sc2ccc(NC4CCCN(Cc5ccncc5)C4)cc2S3)[nH]1` (centres unmarked) [Example 1-24-4, 4-Morpholino-6-(7-((1-(pyridin-4-ylmethyl)piperidin-3-yl)amino)thianthren-1-yl)pyridin-2 (1H)-one], the IC50 is under 100 nM. With `CC(C)Nc1cncc(CNc2ccc3c(c2)Sc2cccc(-c4cc(N5CCOCC5)cc(=O)[nH]4)c2O3)c1` [Example 4-8-26] the figure was 100 to 500 nM.

With `N#Cc1ccnc(CNc2ccc3c(c2)Cc2ccnc(-c4cc(N5CCOCC5)cc(=O)[nH]4)c2O3)c1` [Example 2-41-16, 2-(((1-(4-Morpholino-6-oxo-1,6-dihydropyridin-2-yl)-5H-chromeno[2,3-c]pyridin-7-yl)amino)methyl)isonicotinonitrile], the IC50 was 100 to 500 nM. Consider `CC(C)(C)OC(=O)N1CCC[C@H]1CNc1ccc2c(c1)Cc1cccc(-c3cc(N4CCOCC4)cc(=O)[nH]3)c1O2` [Example 2-21-3, (S)-tert-Butyl 2-(((5-(4-morpholino-6-oxo-1,6-dihydropyridin-2-yl)-9H-xanthen-2-yl)amino)methyl) pyrrolidine-1-carboxylate], for which the IC50 lay in the range of 500 to 2000 nM.

As for `O=c1cc(N2CCOCC2)cc(-c2cccc3c2Sc2ccc(NCc4ccnc(N5CCOCC5)n4)cc2S3)[nH]1` [Example 1-12-41, 4-Morpholino-6-(7-(((2-morpholinopyrimidin-4-yl)methyl)amino)thianthren-1-yl)pyridin-2(1H)-one], the IC50 lay in the range of 100 to 500 nM.

For `Cc1csc(CNc2ccc3c(c2)Cc2cccc(-c4cc(N5CCOCC5)cc(=O)[nH]4)c2O3)n1` [Example 2-14-42, 6-(7-(((4-Methylthiazol-2-yl)methyl)amino)-9H-xanthen-4-yl)-4-morpholino pyridin-2(1H)-one], the IC50 lay within 100 to 500 nM. With `O=c1cc(N2CCOCC2)cc(-c2cccc3c2Oc2ccc(NC4CCNCC4)cc2S3)[nH]1` [Example 4-9, 4-Morpholino-6-(8-(piperidin-4-ylamino)phenoxathiin-4-yl)pyridin-2(1H)-one] the figure was 100 to 500 nM; with `CC1CCCCN1CC(CO)Nc1ccc2c(c1)Sc1cccc(-c3cc(N4CCOCC4)cc(=O)[nH]3)c1S2` (single isomer, unassigned) [Example 1-37-6, 6-(7-((1-Hydroxy-3-(2-methylpiperidin-1-yl)propan-2-yl)amino)thianthren-1-yl)-4-morpholino pyridin-2(1H)-one], 100 to 500 nM. Consider `O=c1cc(N2CCOCC2)cc(-c2ccc(F)c3c2Oc2ccc(NCc4cc(C5CC5)ccn4)cc2C3)[nH]1` [Example 2-44-2, 6-(7-(((4-Cyclopropylpyridin-2-yl)methyl)amino)-1-fluoro-9H-xanthen-4-yl)-4-morpholinopyridin-2(1H)-one], for which the IC50 lay within 100 to 500 nM.
